According to article PMC11111691, “Cystine-knot peptide inhibitors of HTRA1 bind to a cryptic pocket within the active site region” (Nature Communications, 2024):
“Also recorded” adds a separate entry of the source. Positions of bridges follow the written chain, without caps; N, C: chain ends. Residues, ends and D or L forms follow the SMILES beside them. No end group written: not given here.

Assays:
[1] = MDCK trans-well cell permeability assay; assay type: in vitro ADME, canine; settings: dog, MDCK trans-well (protocol of Chen et al. 2018, canine Mdr1 knockout MDCK I), apical to basolateral, 50 µM CKP, 37C, 5% CO2, HBSS 25 mM HEPES pH 7.4, TOF/MS read-out, n = 4-6, read-out: Papp (apparent permeability)
Experimental: (§4) We carried out a cell permeability study using a MDCK trans-well assay, which is commonly
(§5) used at Genentech for permeability screening of compounds . This assay measures the flux of test
(§6) compound (Papp, apparent permeability) across a MDCK monolayer from the apical to the
(§7) basolateral compartment over a 16 h period.
sensitive mass spectrometry method .
(§8) 10x10-6 cm/s and compounds with Papp values of <1x10-6 cm/s are considered to be of low
Protocol of permeability assay:
(§9) Experiments were carried out as described (Chen et al. Evaluating the utility of canine Mdr1 knockout
(§10) Madin-Darby canine kidney I cells in permeability screening and efflux substrate determination, Mol
(§11) Cells were seeded in 96-well Corning Transwell plates (PET membrane, 1 µm pore size) at 75,000 cells
(§12) per well and grown in DMEM media supplemented with 10% FBS, 1% pen-strep and 1x Glutamax at
(§13) 37C, 5% CO2 for 48 h to ensure monolayer formation. Stock solutions of the three CKPs 1B3, 1D3-ENI
(§14) and 1G10-ENI were diluted in Hank's Balanced Salt solution containing 25 mM HEPES, pH 7.4 and 25
(§15) µM of the monolayer integrity marker lucifer yellow. CKPs at a concentration of 50 µM were added to
(§16) the apical (donor) chamber and the CKP the apparent permeability (Papp) was determined by quantifying
(§17) the amount of CKP in the basolateral (receiver) chamber after 16 h incubation at 37C, 5% CO2. The
(§18) samples from the basolateral chamber were supplemented with the experiment analytical internal standard
(§19) (100 nM propranolol in 50% ACN:50% water with 0.1% formic acid) and then injected in a Sciex Zeno
(§20) TOF 7600 mass spectrometer using TOF/MS mode.

MDCK monolayer = test: MDCK trans-well cell permeability assay; assay type: in vitro ADME, canine; settings: MDCK trans-well, apical to basolateral, up to 50 µM, 16 h, mass spectrometry
Experimental: as §4, §5, §6, §7
sensitive mass spectrometry method .
as §8
Protocol of permeability assay:
as §9, §10, §11, §12, §13, §14, §15, §16, §17, §18, §19, §20

HeLa cells = test: Cell toxicity assay (CellTiter-Glo), HeLa; assay type: cell-based; settings: 0.6-50 µM CKP, 24 h and 72 h, at least three independent experiments
Experimental: (§1) reduction at the highest CKP concentration of 50 µM after 72 h (see results below). The absence of cell toxicity is likely due to the inability of the CKPs to penetrate cell membranes, which was experimentally determined in response to another reviewer. Due to space limitations we have not […]
(§2) Protocol of cell toxicity assay (Figure above):
(§3) HeLa cells or C32 melanoma cells were passaged in DMEM media supplemented with 10% FBS, 1% pen-strep and 1x Glutamax using standard culture conditions (5% CO2, 90% humidity at 37°C). At approximately 95% confluence cells were trypsinized, seeded onto 96-well plates (Corning) at 10,000 cells/well and grown for 24 h. Cells were then incubated with the CKPs 3B3, 1D3-ENI and 1G10-ENI (0, 0.6, 1.9, 5.6, 16.7 and 50 µM) at 37°C for 24 h or for 72h. As a positive control we used staurosporine (STS; 1µM). Cell viability was measured using the CellTiter-Glo luminescent cell viability assay (Promega) on an Envision Multilabel plate reader. Average of at least three independent experiments ± S.D. were plotted in Prism 10. Two-way ANOVA was performed on each dataset and compared to no drug samples and no significant viability reductions were observed, except for some treatments at the […]

C32 melanoma cells = test: Cell toxicity assay (CellTiter-Glo), C32; assay type: cell-based, human; settings: for Viability reduction, C32 cells, 72 h: 50 µM CKP; for Cell viability, C32 melanoma cells: 0.6-50 µM CKP, 24 h and 72 h, at least three independent experiments
Experimental: as §1, §2, §3

CKP stability assay = assay type: physicochemical; settings: chemical stability, PBS containing 0.15% DMSO, 0.3 mM (~1 mg/ml), 37 °C, LC-MS, HPLC UV 220 nm peak area normalized to DMSO peak, two independent experiments, preliminary
Experimental: The CKPs 1G10 and 1G10-ENI were incubated in PBS containing 0.15% DMSO at a concentration of 0.3 mM (~1 mg/ml) at 37 °C for 30 days. Samples from two independently performed experiments were frozen at −20 °C until further analysis. Thawed samples were diluted in H2O and injected into LC-MS (Agilent). From the HPLC UV trace (at 220 nm) the CKP peak area was normalized to the DMSO peak area from the same run. The values obtained from multiple HPLC runs were averaged and shown as dot plot.

Row | Compound | Papp A→B at 16 h, 50 µM [1] [×10⁻⁶ cm/s] | Cell permeability in the MDCK cell assay (MDCK monolayer) | Cell viability, HeLa cells (HeLa cells) | Viability reduction, C32 cells, 72 h (C32 melanoma cells) [%] | Cell viability, C32 melanoma cells (C32 melanoma cells) | Stability: intact peptide after 30 days (CKP stability assay)
1 | CC[C@H](C)[C@H](N)C(=O)N[C@@H](Cc1c[nH]c2ccccc12)C(=O)N1CCC[C@H]1C(=O)N[C@@H](CC(=O)O)C(=O)N1CCC[C@H]1C(=O)N[C@H](C(=O)N[C@H]1CSSC[C@@H]2NC(=O)[C@H](Cc3ccccc3)NC(=O)[C@H](Cc3c[nH]c4ccccc34)NC(=O)[C@H](C)NC(=O)CNC(=O)[C@H](CO)NC(=O)[C@@H]3CSSC[C@@H](C(=O)NCC(=O)N[C@@H](Cc4c[nH]c5ccccc45)C(=O)NCC(=O)N[C@H](C(=O)N[C@@H](CCCNC(=N)N)C(N)=O)[C@@H](C)CC)NC(=O)[C@H](CO)NC(=O)[C@H](Cc4c[nH]c5ccccc45)NC(=O)[C@H](CC(N)=O)NC(=O)[C@H](C)NC(=O)[C@H](Cc4ccc(O)cc4)NC(=O)[C@H](Cc4ccc(O)cc4)NC(=O)[C@H](CSSC[C@H](NC(=O)[C@@H]4CCCN4C(=O)[C@H](CCCCN)NC(=O)[C@H](CC(N)=O)NC1=O)C(=O)N[C@@H](CCC(=O)O)C(=O)N[C@@H]([C@@H](C)O)C(=O)N[C@@H](Cc1c[nH]cn1)C(=O)N[C@@H](CC(=O)O)C(=O)N[C@@H](CC(=O)O)C(=O)N3)NC(=O)[C@H]([C@@H](C)O)NC(=O)[C@H](CCC(N)=O)NC2=O)[C@@H](C)CC [1D3-ENI] (H-IWPDPICNKPCETHDDCSGAWFCQTCYYANWSCGWGIR-NH2; disulfide 7-23, 11-26, 17-33) | < 0.003 | no detectable cell permeability | did not appreciably affect cell viability | 13 | did not appreciably affect cell viability | –
2 | CC[C@H](C)[C@H](NC(=O)CNC(=O)[C@H](Cc1c[nH]c2ccccc12)NC(=O)CNC(=O)[C@@H]1CSSC[C@@H]2NC(=O)[C@H](CC(=O)O)NC(=O)[C@H](CC(=O)O)NC(=O)[C@H](Cc3c[nH]cn3)NC(=O)[C@H]([C@@H](C)O)NC(=O)[C@H](CCC(=O)O)NC(=O)[C@@H]3CSSC[C@H](NC(=O)[C@H]([C@@H](C)O)NC(=O)[C@H](CCC(N)=O)NC(=O)[C@H](CSSC[C@H](NC(=O)[C@@H](NC(=O)[C@@H]4CCCN4C(=O)[C@H](CC(=O)O)NC(=O)[C@@H](NC(=O)[C@@H]4CCCN4C(=O)[C@@H](N)Cc4ccc(O)cc4)C(C)C)[C@@H](C)CC)C(=O)N[C@@H](CC(N)=O)C(=O)N[C@@H](CCCCN)C(=O)N4CCC[C@H]4C(=O)N3)NC(=O)[C@H](Cc3ccccc3)NC(=O)[C@H](Cc3c[nH]c4ccccc34)NC(=O)[C@H](C)NC(=O)CNC(=O)[C@H](CO)NC2=O)C(=O)N[C@@H](Cc2ccc(O)cc2)C(=O)N[C@@H](Cc2ccc(O)cc2)C(=O)N[C@@H](C)C(=O)N[C@@H](CC(N)=O)C(=O)N[C@@H](Cc2c[nH]c3ccccc23)C(=O)N[C@@H](CO)C(=O)N1)C(=O)N[C@@H](CCCNC(=N)N)C(N)=O [1G10-ENI] (H-YPVDPICNKPCETHDDCSGAWFCQTCYYANWSCGWGIR-NH2; disulfide 7-23, 11-26, 17-33) | < 0.003 | no detectable cell permeability | did not appreciably affect cell viability | 13 | did not appreciably affect cell viability | no change in peptide mass at 30 days; also recorded: highly stable
3 | YPVDPICNKPCKTHDDCSGAWFCQTCYYATWSCGWGLRQID-NH2 (disulfide 7-23, 11-26, 17-33) [1G10] | – | – | – | – | – | no change in peptide mass at 30 days; also recorded: highly stable
